The values below come from ChEMBL document CHEMBL5316319, “Targeting Death-Associated Protein Kinases for Treatment of Human Diseases: Recent Advances and Future Directions” (J Med Chem, 2023).

One may read the IC50 as the concentration that gives 50% inhibition. Usually Ki stands for the dissociation constant of the complex between target and ligand, obtained from inhibition or displacement. For orientation: Kd means the equilibrium constant for the complex coming apart. What is called inhibition is the drop in the measured response relative to a control, in per cent. Low values mean little suppression, high ones strong suppression.

The target of experiment [1] is T1, Death-associated protein kinase 1 (Homo sapiens, UniProt P53355). The experiment can be described thus: Inhibition of DAPK1 (unknown origin).
The target of experiment [2] is T1, Death-associated protein kinase 1. The experiment can be described thus: Inhibition of DAPK1 (1 to 285 residues) (unknown origin) expressed in Escherichia coli using KKLNRTLSFAEPG as substrate in presence of ATP by fluoro-spark kinase assay.
The target is the same in experiment [3]. In words: Inhibition of DAPK1 (unknown origin) in presence of 33P-ATP radiolabeled kinase assay.
For experiment [4], the target named is Serine/threonine-protein kinase pim-1 (Homo sapiens, UniProt P11309). In words: Inhibition of human full length-His6 tagged PIM1 (1 to 312 residues) expressed in Escherichia coli BL21 (DE3) assessed as inhibition constant using RSRHSSYPAGT as peptide substrate incubated for 10 mins in presence of [gamma-32P]ATP by radiometric scintillation assay.
Experiment [5] has as its target Serine/threonine-protein kinase pim-2 (Homo sapiens, UniProt Q9P1W9). The experiment can be described thus: Inhibition of human full length-His6 tagged PIM2 (1 to 311 residues) expressed in Escherichia coli BL21 (DE3) assessed as inhibition constant using RSRHSSYPAGT as peptide substrate incubated for 10 mins in presence of [gamma-32P]ATP by radiometric scintillation assay.

The target in experiment [6] is T2, Serine/threonine-protein kinase pim-3 (Homo sapiens, UniProt Q86V86). In words: Inhibition of human full length-His6 tagged PIM3 (1 to 326 residues) expressed in Escherichia coli BL21 (DE3) assessed as inhibition constant using RSRHSSYPAGT as peptide substrate incubated for 10 mins in presence of [gamma-32P]ATP by radiometric scintillation assay.
Experiment [7] concerns the target T3, Death-associated protein kinase 3 (Homo sapiens, UniProt O43293). In words: Inhibition of human recombinant GST-fused DAPK3 (1 to 320 residues) expressed in Escherichia coli BL21 (DE3) assessed as inhibition constant using MYPT1 as peptide substrate incubated for 10 mins in presence of [gamma-32P]ATP by radiometric scintillation assay.
Experiment [8] has as its target T4, Serine/threonine-protein kinase 17B (Homo sapiens, UniProt O94768).
T4 sequence (O94768 whole entry): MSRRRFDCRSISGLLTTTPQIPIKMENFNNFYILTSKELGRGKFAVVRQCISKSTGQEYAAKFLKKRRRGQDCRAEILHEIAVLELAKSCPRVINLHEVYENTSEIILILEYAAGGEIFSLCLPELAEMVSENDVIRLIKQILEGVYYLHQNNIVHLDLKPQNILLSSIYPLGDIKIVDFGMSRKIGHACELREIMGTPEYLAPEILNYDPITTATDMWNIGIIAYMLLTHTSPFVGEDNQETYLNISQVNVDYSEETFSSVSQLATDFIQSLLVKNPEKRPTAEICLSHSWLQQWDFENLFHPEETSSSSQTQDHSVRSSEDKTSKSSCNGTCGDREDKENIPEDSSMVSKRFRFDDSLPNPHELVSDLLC
The experiment can be described thus: Inhibition of recombinant GST-tagged DRAK2 (unknown origin) by promega ADP-Glo assay. A general note: In ADP-Glo the light output rises with the ADP produced.

Experiment [9] deals with T5, Serine/threonine-protein kinase 17A (Homo sapiens, UniProt Q9UEE5).
T5 sequence (Q9UEE5 whole entry): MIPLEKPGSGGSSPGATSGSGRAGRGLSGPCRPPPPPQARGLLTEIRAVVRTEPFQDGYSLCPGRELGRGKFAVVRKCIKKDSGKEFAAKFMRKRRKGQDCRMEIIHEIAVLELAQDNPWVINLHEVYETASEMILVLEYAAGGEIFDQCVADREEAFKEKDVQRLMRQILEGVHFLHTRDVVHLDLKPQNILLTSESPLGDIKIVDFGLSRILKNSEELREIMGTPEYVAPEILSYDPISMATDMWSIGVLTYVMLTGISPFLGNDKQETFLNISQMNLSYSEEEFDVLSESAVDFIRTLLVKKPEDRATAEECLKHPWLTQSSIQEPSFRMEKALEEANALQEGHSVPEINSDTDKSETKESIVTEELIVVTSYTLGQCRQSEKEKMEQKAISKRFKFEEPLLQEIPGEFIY
In words: Inhibition of DRAK1 (unknown origin).

Experiment [10] deals with T4, Serine/threonine-protein kinase 17B. The experiment can be described thus: Inhibition of DRAK2 (unknown origin).
Experiment [11] has as its target T3, Death-associated protein kinase 3. The experiment can be described thus: Inhibition of DAPK3 (unknown origin).
Experiment [12] concerns the target Death-associated protein kinase 2 (Homo sapiens, UniProt Q9UIK4). In words: Binding affinity to DAPK2 (unknown origin) assessed as dissociation constant.
The target in experiment [13] is T3, Death-associated protein kinase 3. The experiment can be described thus: Binding affinity to DAPK3 (unknown origin) assessed as dissociation constant.
Experiment [14] deals with T1, Death-associated protein kinase 1. In words: Inhibition of DAPK1 (unknown origin) at 10 uM by (33P-ATP) filter-binding assay relative to control.
For experiment [15], the target named is T2, Serine/threonine-protein kinase pim-3. In words: Inhibition of PIM3 (unknown origin) at 10 uM by (33P-ATP) filter-binding assay relative to control.
The target of experiment [16] is T4, Serine/threonine-protein kinase 17B. The experiment can be described thus: Binding affinity to DRAK2 (unknown origin) assessed as dissociation constant.

A value given as a limit tells only on which side of the number the result lay.

`COc1cc(-c2ccc3ncc(-c4ccc(C(=O)NCCN(C)C)cc4)n3n2)ccc1O` registered an IC50 in experiment [1] of 247 nM.

`O=C1c2ccccc2C(=O)c2c(O)c(O)cc(O)c21` [PURPURIN]: the IC50 in experiment [2] amounted to 0.89 µM.

In the case of `CC(C)(C)n1c(-c2ccccc2)nc2c(OCc3ccccc3)ncnc21`, in [3], the IC50 stood at 2.5 µM.

The molecule `CCc1ccccc1-c1nn(CCCCCCCCCCC(=O)Nc2cnnc(-c3ccccc3)c2)c(=N)cc1C` came in with an IC50 in [1] of 13000 nM.

For `Nc1c(O)c(S(=O)(=O)O)c(O)c2c1C(=O)c1ccccc1C2=O`, the IC50 in experiment [2] was determined as 9.6 µM.

`CC(C)(Sc1nc2c(cnn2-c2ccccc2)c(=O)[nH]1)C(N)=O`: the Ki is 6.31 µM in [4], more than 100 µM in experiment [5], 2500 nM in experiment [6] and 126 nM in experiment [7].

In the case of `c1ccc(COc2ncnc3c2ncn3Cc2ccccc2)cc1`, the IC50 in experiment [3] was 5.9 µM.

`COC(=O)C1=C2Nc3ccccc3C23CC2N(C)[C@H]3C[C@H]1[C@@]2(C)C(C)=O` (stereo not given in full): in experiment [8], the concentration for half-maximal inhibition (IC50) was 11.6 µM.

With `COc1cnc(Nc2ccc(CS(C)(=O)=O)cc2)nc1Nc1cc(C2CC2)[nH]n1`, the half-maximal inhibitory concentration (IC50) in [9] came to 100 nM; in experiment [10], 10 nM; in experiment [1], 370 nM; in [11], 310 nM.

Take `CC(Sc1nc2c(cnn2-c2cccc(Cl)c2)c(=O)[nH]1)C(N)=O` (stereo not given): the Ki in [4] is 2.94 µM; in [5] it was 0.208 µM; in experiment [6], more than 100000 nM; in experiment [7] it was 260 nM. The Kd in experiment [12] stood at 79 nM; in experiment [13] it was 280 nM. For the same molecule, the inhibition in [14] came out at 89%; in [15] it was 76%.

Take `Nc1c(-c2n[nH]c(=S)o2)sc2ccc(Cl)cc12`: the Kd in experiment [16] was found to be 250 nM.

In the case of `Nc1c(-c2n[nH]c(=S)o2)sc2ncc(-c3ccsc3)cc12`, the dissociation constant Kd in experiment [16] is 8 nM.

In the case of `CCC(Sc1nc2c(cnn2-c2cccc(F)c2)c(=O)[nH]1)C(N)=O` (stereo not given), the Ki in experiment [4] is 6.48 µM; in experiment [5], more than 100 µM; in experiment [6] it was 1070 nM; in experiment [7], 119 nM.

Regarding `O=C1c2ccccc2C(=O)c2c1ccc(O)c2O` [ATHRAQUINONES A], the 50% inhibitory concentration (IC50) in experiment [2] was 3.6 µM.

Consider `N#CCSc1nc2c(cnn2-c2cccc(Cl)c2)c(=O)[nH]1`, for which the inhibition constant (Ki) in experiment [4] worked out at 1.48 µM; in experiment [5], 17.3 µM; in experiment [6], 72 nM; in experiment [7] it was 315 nM.

On to `Cc1nc2c(OCc3ccccc3)ncnc2n1C(C)C`, for which the concentration for half-maximal inhibition (IC50) in experiment [3] came to 23 µM.
